Results published in patent US20230219979A1, “PYRAZOLO[1,5-a]PYRIDINE COMPOUND, PREPARATION METHOD THEREFOR AND USE THEREOF” (SHENZHEN ZHONGGE BIOLOGICAL TECHNOLOGY CO., LTD., priority 2019, published 2023).
Read-outs that look alike come from different tables or passages of the source.

Legend:
Wild-type RET kinase = Wild-type RET kinase (Homo sapiens, UniProt P07949); test: HTRF method for testing the inhibitory activity of compounds against RET; type: biochemical
Ba/F3-KIF5B-RET cell = target: T1, Ba/F3-KIF5B-RET cell (Homo sapiens, UniProt P07949); test: CellTiter-Glo luminescence assay, inhibitory activity against Ba/F3-KIF5B-RET cell; type: cell-based; settings: 72 h, read-out: Ba/F3-KIF5B-RET cell activity
T1 construct: fused on or other part: P33176 (Kinesin-1 heavy chain)
From the text: (C) In Vitro Screening Experiment - CellTiter-Glo Luminescence Assay for Testing The inhibitory activity of compounds against Ba/F3-KIF5B-RET cell
• 1. The mammalian cell expression vector containing human KIF5B-RET cDNA was introduced into Ba/F3 cells using the Neon® transfection system method, and the surviving clones screened by puromycin were subjected to cell growth inhibitory function experiments and Western blotting to verify cell lines with stable and high expression of RET. • 2. Cells were cultured in RPMI 1640 medium containing 10% fetal bovine serum, 1% penicillin-streptomycin, and 2 µg/mL puromycin, and then placed in a 37° C., 5% carbon dioxide cell incubator. • 3. The test compound (5 mM stock) was diluted 2.5 folds to […] with 100% dimethyl sulfoxide; and the compound was diluted into 10 concentrations at an equal ratio of 1:3 in a 384-well dilution plate. • 4. 0.2 µL of the serially diluted compound was added to a 384-well cell culture plate (Corning, 3570) using an Echo 550 pipetting system, 2 replicate wells for each concentration, and the final concentration of dimethyl sulfoxide was 0.5% (v/v). The gradient concentrations of the test compound were 5000, 1666.7, 555.5, 185.18, 61.72, 20.57, 6.858, 2.286, 0.764, 0.254 nM. • 5. 40 µL of Ba/F3-KIF5B-RET cell suspension containing 800 cells was added to each well, and incubated for 72 h in a 5% CO2 cell incubator. • 6. 20 µL of Cell Titer-Glo reagent was added to each well of the cell culture plate, and the culture system was then shaken and mixed thoroughly for 2 min to lyse the cells, the cells were then incubated at room temperature for 30 min, and the […] signal values were then read with an Envision 2104 microplate reader. • 7. By fitting the data with XLFit 5.0 based on the parameters formula, the IC50 value was calculated as: • [formula]

[1] = HTRF, read-out: Wild-type RET kinase

T1 sequence (P07949 whole entry, stated change not applied, the tested form may be a part): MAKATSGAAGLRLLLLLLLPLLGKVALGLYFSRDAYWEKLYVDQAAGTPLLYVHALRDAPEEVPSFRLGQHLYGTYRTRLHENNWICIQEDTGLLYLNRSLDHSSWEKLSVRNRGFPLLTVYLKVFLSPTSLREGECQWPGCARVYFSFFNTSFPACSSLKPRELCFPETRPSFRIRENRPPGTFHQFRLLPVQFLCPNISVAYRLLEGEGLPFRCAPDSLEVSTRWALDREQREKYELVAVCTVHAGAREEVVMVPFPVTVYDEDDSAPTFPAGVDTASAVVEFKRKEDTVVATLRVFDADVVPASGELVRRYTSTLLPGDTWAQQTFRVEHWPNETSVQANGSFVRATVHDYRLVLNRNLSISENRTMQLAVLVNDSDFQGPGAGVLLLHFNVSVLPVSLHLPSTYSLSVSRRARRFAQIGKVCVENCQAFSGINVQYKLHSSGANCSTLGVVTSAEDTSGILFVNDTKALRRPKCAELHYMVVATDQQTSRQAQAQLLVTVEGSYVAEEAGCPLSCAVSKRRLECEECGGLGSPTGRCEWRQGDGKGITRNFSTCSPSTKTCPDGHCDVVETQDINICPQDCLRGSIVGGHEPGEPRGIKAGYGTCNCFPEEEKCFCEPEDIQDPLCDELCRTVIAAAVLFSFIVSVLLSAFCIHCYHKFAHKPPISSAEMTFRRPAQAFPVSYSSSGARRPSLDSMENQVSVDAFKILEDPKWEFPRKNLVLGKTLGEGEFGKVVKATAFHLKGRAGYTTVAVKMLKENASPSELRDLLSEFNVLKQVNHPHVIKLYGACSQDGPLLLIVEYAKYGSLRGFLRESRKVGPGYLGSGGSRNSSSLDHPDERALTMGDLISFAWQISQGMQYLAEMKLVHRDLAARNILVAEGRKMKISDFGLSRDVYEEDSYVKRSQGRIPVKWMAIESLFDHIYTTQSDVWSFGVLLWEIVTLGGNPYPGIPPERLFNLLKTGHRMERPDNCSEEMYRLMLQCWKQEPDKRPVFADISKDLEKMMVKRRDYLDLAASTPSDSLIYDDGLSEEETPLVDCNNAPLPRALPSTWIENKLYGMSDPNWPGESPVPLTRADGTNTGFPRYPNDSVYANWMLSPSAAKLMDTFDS
Sequence of Wild-type RET kinase (P07949 29-1114): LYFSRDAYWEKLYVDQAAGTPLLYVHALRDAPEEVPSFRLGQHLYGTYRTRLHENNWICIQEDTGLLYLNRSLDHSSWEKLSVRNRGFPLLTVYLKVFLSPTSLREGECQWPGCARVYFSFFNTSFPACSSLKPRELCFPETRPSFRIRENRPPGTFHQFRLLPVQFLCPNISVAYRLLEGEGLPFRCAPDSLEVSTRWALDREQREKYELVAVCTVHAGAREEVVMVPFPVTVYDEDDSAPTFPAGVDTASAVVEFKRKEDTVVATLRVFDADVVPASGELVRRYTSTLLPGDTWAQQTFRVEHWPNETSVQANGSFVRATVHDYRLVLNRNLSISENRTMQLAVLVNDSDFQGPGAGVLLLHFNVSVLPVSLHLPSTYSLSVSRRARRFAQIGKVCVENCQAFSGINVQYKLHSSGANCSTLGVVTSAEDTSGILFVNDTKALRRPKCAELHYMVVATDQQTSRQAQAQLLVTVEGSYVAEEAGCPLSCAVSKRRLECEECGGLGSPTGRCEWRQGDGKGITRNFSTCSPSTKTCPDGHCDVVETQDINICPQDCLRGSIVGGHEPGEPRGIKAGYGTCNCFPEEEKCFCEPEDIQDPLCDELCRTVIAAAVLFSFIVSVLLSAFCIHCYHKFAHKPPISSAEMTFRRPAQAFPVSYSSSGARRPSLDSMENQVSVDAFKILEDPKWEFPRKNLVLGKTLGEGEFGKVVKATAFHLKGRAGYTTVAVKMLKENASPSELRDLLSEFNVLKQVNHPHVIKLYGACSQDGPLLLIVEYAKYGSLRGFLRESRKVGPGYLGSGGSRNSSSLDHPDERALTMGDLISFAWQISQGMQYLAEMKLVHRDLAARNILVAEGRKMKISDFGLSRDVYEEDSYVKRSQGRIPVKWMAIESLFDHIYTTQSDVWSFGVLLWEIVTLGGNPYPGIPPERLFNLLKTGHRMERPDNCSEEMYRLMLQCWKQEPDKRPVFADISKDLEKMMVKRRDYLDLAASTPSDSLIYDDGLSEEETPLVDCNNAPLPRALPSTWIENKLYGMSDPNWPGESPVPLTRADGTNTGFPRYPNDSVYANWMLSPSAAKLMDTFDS

| Compound | IC50 (Wild-type RET kinase; [1]) [µM] | GI50 (Ba/F3-KIF5B-RET cell) [µM] | IC50 (Wild-type RET kinase) [µM] |
| --- | --- | --- | --- |
| CCNC(=O)c1cnn2cc(-c3cnn(C)c3)cc(-c3ccc(N4CCN(c5ccc(OC)nc5)CC4)nc3)c12 [Compound 3, N-ethyl-4-(6-(4-(6-methoxypyridin-3-yl)piperazin-1-yl)pyridin-3-yl)-6-(1-methyl-1H-pyridinoxazol-4-yl)H-pyrazolo[1,5-a]pyridine-3-carboxamide] | > 10 |  |  |
| COc1ccc(CN2CCN(c3ccc(-c4cc(-c5cnn(C)c5)cn5ncc(NC(C)=O)c45)cn3)CC2)cn1 [Compound 4, N-(4-(6-(4-((6-methoxypyridin-3-yl)methyl)piperazin-1-yl)pyridin-3-yl)-6-(1-methyl-1H-pyrazol-4-yl)pyrazol[1,5-a]pyridin-3-yl)acetamide] | 6.59 |  |  |
| CNC(=O)Nc1cnn2cc(-c3cnn(C)c3)cc(-c3ccc(N4CCN(Cc5ccc(OC)nc5)CC4)nc3)c12 [Compound 9, 1-(4-(6-(4-((6-methoxypyridin-3-yl)methyl)piperazin-1-yl)pyridin-3-yl)-6-(1-methyl-1H -pyrazol-4-yl)pyrazolo[1,5-a]pyridin-3-yl)-3-methylurea] | > 10 |  |  |
| COc1ccc(CN2CCN(c3ccc(-c4cc(-c5cnn(C)c5)cn5ncc(NC(=O)C6CC6)c45)cn3)CC2)cn1 [Compound 10, N-(4-(6-(4-((6-methoxypyridin-3-yl)methyl)piperazin-1-yl)pyridin-3-yl)-6-(1-methyl-1H-pyrazol-4-yl)pyrazolo[1,5-a]pyridin-3-yl)cyclopropanecarboxamide] | > 10 |  |  |
| COc1ccc(CN2CCN(c3ccc(-c4cc(-c5cnn(C)c5)cn5ncc(NC(=O)c6ccccc6)c45)cn3)CC2)cn1 [Compound 11, N-(4-(6-(4-((6-methoxypyridin-3-yl)methyl)piperazin-1-yl)pyridin-3-yl)-6-(1-methyl-1H-pyrazol-4-yl)pyrazolo[1,5-a]pyridin-3-yl)benzamide] | > 10 |  |  |
| COc1ccc(CN2CCN(c3ccc(-c4cc(OCCN5CC6(COC6)C5)cn5ncc(C#N)c45)cn3)CC2)cn1 [Compound 13, 6-(2-(2-oxa-6-azaspiro[3.3]hept-6-yl)ethoxy)-4-(6-(4-((6-methoxypyridin-3-yl)methyl)piperazin-1-yl)pyridin-3-yl)pyrazolo[1,5-a]pyridine-3-carbonitrile] | 0.0008 | 0.224 |  |
| COc1ccc(CN2CCN(c3ccc(-c4cc(OCCN5CC6CCC5C6)cn5ncc(C#N)c45)cn3)CC2)cn1 (stereo not shown) [Compound 15, 6-(2-(2-azabicyclo[2.2.1]hept-2-yl)ethoxy)-4-(6-(4-((6-methoxypyridin-3-yl)methyl)piperazin-1-yl)pyridin-3-yl)pyrazolo[1,5-a]pyridine-3-carbonitrile] | 0.0014 | 0.225 |  |
| COc1ccc(CN2C3CC2CN(c2cnc(-c4cc(OCCN5CC6CCCNC6C5)cn5ncc(C#N)c45)cn2)C3)cn1 (stereo not shown) [Compound 17, 4-(5-(6-((6-methoxypyridin-3-yl)methyl)-3,6-diazabicyclo[3.1.1]hept-3-yl)pyrazin-2-yl)-6-(2-(octahydro-6H-pyrrole[3,4-b]pyridin-6-yl)ethoxy)pyrazolo[1,5-a]pyridine-3-carbonitrile] | 0.00032 | 0.0611 |  |
| COc1ccc(CN2C3CC2CN(c2cnc(-c4cc(OCCN5CCC6NCCC6C5)cn5ncc(C#N)c45)cn2)C3)cn1 (stereo not shown) [Compound 18, 4-(5-(6-((6-methoxypyridin-3-yl)methyl)-3,6-diazabicyclo[3.1.1]hept-3-yl)pyrazin-2-yl)-6-(2-(octahydro-5H-pyrrolo[3,2-c]pyridin-5-yl)ethoxy)pyrazolo[1,5-a]pyridine-3-carbonitrile] | 0.0005 | 0.123 |  |
| COc1ccc(CN2C3CC2CN(c2cnc(-c4cc(OCCN5CC6(CCCNC6)C5)cn5ncc(C#N)c45)cn2)C3)cn1 [Compound 19, 6-(2-(2,6-diazaspiro[3.5]non-2-yl)ethoxy)-4-(5-(6-((6-methoxypyridin-3-yl)methyl)-3,6-diazabicyclo[3.1.1]heptan-3-yl)pyrazin-2-yl)pyrazolo[1,5-a]pyridine-3-carbonitrile] | 0.00077 | 0.183 |  |
| COc1ccc(CN2C3CC2CN(c2cnc(-c4cc(OCCN5CCC6(COC6)C5)cn5ncc(C#N)c45)cn2)C3)cn1 [Compound 20, 6-(2-(2-oxa-6-azaspiro[3.4]oct-6-yl)ethoxy)-4-(5-(6-((6-methoxypyridin-3-yl)methyl)-3,6-diazabicyclo[3.1.1]heptan-3-yl)pyrazin-2-yl)pyrazolo[1,5-a]pyridine-3-carbonitrile] | 0.00263 | 0.0191 |  |
| CCNC(=O)Oc1cc(-c2cnc(N3CC4CC(C3)N4Cc3ccc(OC)nc3)cn2)c2c(C#N)cnn2c1 [Compound 42, 3-cyano-4-(5-(6-((6-methoxypyridin-3-yl)methyl)-3,6-diazabicyclo[3.1.1]heptan-3-yl)pyrazin-2-yl)pyrazolo[1,5-a]pyridin-6-ylethylcarbamate] |  |  | 0.0092 |
| COc1ccc(CN2C3CC2CN(c2ccc(-c4cc(NCC5CCOCC5)cn5ncc(C#N)c45)cn2)C3)cn1 [Compound 54, 4-(6-(6-((6-methoxypyridin-3-yl)methyl)-3,6-diazabicyclo[3.1.1]heptyl-3-yl)pyridin-3-yl)-6-(((-2H-pyran-4-yl)methyl)amino)pyrazolo[1,5-a]pyridine-3-carbonitrile] | 0.00276 |  |  |
| COc1ccc(CN2C3CC2CN(c2ccc(-c4cc(NCC5CCN(C)CC5)cn5ncc(C#N)c45)cn2)C3)cn1 [Compound 64] | 0.00483 |  |  |
| COc1ccc(CN2C3CC2CN(c2ccc(-c4cc(NCC5CCOC5)cn5ncc(C#N)c45)cn2)C3)cn1 (stereo not shown) [Compound 65, 4-(6-(6-((6-methoxypyridin-3-yl)methyl)-3,6-diazabicyclo[3.1.1]heptyl-3-yl)pyridin-3-yl)-6-(((tetrahydrofuran-3-yl)methyl)amino)pyrazolo[1,5-a]pyridine-3-carbonitrile] | 0.00605 |  |  |
| COc1ccc(CN2C3CC2CN(c2ccc(-c4cc(OCC(C)(C)O)cn5ncc(C#N)c45)cn2)C3)cn1 [LOXO-292, reference compound] |  | 0.00708 |  |

Now from value to compound, other results behind:

| IC50 (Wild-type RET kinase; [1]) [µM] | GI50 (Ba/F3-KIF5B-RET cell) [µM] | Compound | IC50 (Wild-type RET kinase) [µM] |
| --- | --- | --- | --- |
| > 10 |  | COc1ccc(CN2CCN(c3ccc(-c4cc(-c5cnn(C)c5)cn5ncc(C(=O)NC(C)C)c45)cn3)CC2)cn1 [Compound 5] |  |
| 0.678 |  | CNC(=O)c1cnn2cc(-c3cnn(C)c3)cc(-c3ccc(N4CCN(Cc5ccc(OC)nc5)CC4)nc3)c12 [Compound 6] |  |
| > 10 |  | COc1ccc(CN2CCN(c3ccc(-c4cc(-c5cnn(C)c5)cn5ncc(NC(=O)c6cncn6C)c45)cn3)CC2)cn1 [Compound 12, N-(4-(6-(4-((6-methoxypyridin-3-yl)methyl)piperazin-1-yl)pyridin-3-yl)-6-(1-methyl-1H-pyrazol-4-yl)pyrazolo[1,5-a]pyridin-3-yl)-1-methyl-1H-imidazole-5-carboxamide] |  |
| 0.0016 | 0.26 | COc1ccc(CN2CCN(c3ccc(-c4cc(OCCN5CCC6(CCOCC6)CC5)cn5ncc(C#N)c45)cn3)CC2)cn1 [Compound 14, 6-(2-(3-oxa-9-azaspiro[5.5]undec-9-yl)ethoxy)-4-(6-(4-((6-methoxypyridine-3-yl)methyl)piperazin-1-yl)pyridin-3-yl)pyrazolo[1,5-a]pyridine-3-carbonitrile] |  |
| 0.0011 | 0.203 | COc1ccc(CN2CCN(c3ccc(-c4cc(OCCN5CC6CC6C5)cn5ncc(C#N)c45)cn3)CC2)cn1 (stereo not shown) [Compound 16, 6-(2-(3-azabicyclo[3.1.0]hex-3-yl)ethoxy)-4-(6-(4-((6-methoxypyridin-3-yl)methyl)piperazin-1-yl)pyridin-3-yl)pyrazolo[1,5-a]pyridine-3-carbonitrile] |  |
| 0.00072 | 0.192 | COc1ccc(CN2C3CC2CN(c2cnc(-c4cc(OCCN5CCC6(CCNC6)CC5)cn5ncc(C#N)c45)cn2)C3)cn1 [Compound 21] |  |
| 0.00554 |  | COc1ccc(CN2C3CC2CN(c2cnc(-c4cc(NCC5CC5)cn5ncc(C#N)c45)cn2)C3)cn1 [Compound 53] |  |
| 0.0104 |  | COc1ccc(CN2C3CC2CN(c2cnc(-c4cc(N(C)CCN(C)C)cn5ncc(C#N)c45)cn2)C3)cn1 [Compound 58, 6-((2-(dimethylamino)ethyl)(methyl)amino)-4-(5-(6-((6-methoxypyridin-3-yl)methyl)-3,6-diazabicyclo[3.1.1]heptan-3-yl)pyrazin-2-yl)pyrazolo[1,5-a]pyridine-3-carbonitrile] |  |
| 0.0296 |  | COc1ccc(CN2C3CC2CN(c2ccc(-c4cc(NCC5CCCCC5)cn5ncc(C#N)c45)cn2)C3)cn1 [Compound 60, 6-((cyclohexylmethyl)amino)-4-(6-(6-((6-methoxypyridin-3-yl)methyl)-3,6-diazabicyclo[3.1.1]heptan-3-yl)pyridin-3-yl)pyrazolo[1,5-a]pyridine-3-carbonitrile] |  |
